Measurements published in patent US20240166637A1, “COMPOUNDS AND METHODS FOR TREATING MALARIA” (Microbiotix, Inc., priority 2021, published 2024).
pIC50: −log10 of the molar value. Values after ≈ are worked out from the molar mass of the structure shown. Read-outs that look alike come from different tables or passages of the source.

Assays:
Caco-2 permeability = type: in vitro ADME; details: human, Caco-2; read-out: Papp, Caco-2 cell monolayer
Protocol: (§1) The Caco-2 assay is an indicator of the potential oral bioavailability of the inhibitor compound. Caco-2 cells were applied to wells of a collagen-coated BioCoat Cell Environment (BD Biosciences) plate as described (Duraisingh, M., and A. Cowman, Acta Trop., 94:181-190 (2005)). The test agent was added to the apical (A) side and the amount of permeation was determined on the basolateral (B) side by LC/MS/MS analysis. The amount of material on the A and B sides were used to calculate a Papp value (Caco-2 Papp).

P. falciparum = test: In vitro parasite growth inhibition in PGIM (SYBR Green I); type: cell-based
Protocol: P. falciparum laboratory lines were propagated at the asexual stage with standard methods, in RPMI 1640 medium supplemented with 25 mM HEPES, 31 mM NaHCO3, 0.37 mM hypoxanthine, 10 μg/ml gentamicin, and 10% pooled human serum. Nutrient deprivation experiments utilized standard PSAC Growth Inhibition Medium (PGIM) but with reduced concentrations of individual ingredients. Human serum was exhaustively dialyzed against distilled water before addition to those media. The PGIM contained reduced concentrations of isoleucine (11.4 μM), glutamine (102 μM), and hypoxanthine (3.01 μM) and was supplemented with the dialyzed human serum. Growth inhibition experiments (Burrows et al., Parasitology, 141:128-139 (2013)) were quantified by using a SYBR Green I-based fluorescence assay for parasite nucleic acid in 96-well microplates, as described previously (Dondorp et al., supra (2009)). Ring-stage synchronized cultures were seeded at 1% parasitemia and 2% hematocrit levels in standard medium or PGIM and were maintained for 72 hr at 37° C. in 5% O2/5% CO2 in nitrogen, without medium changes. Cultures were then lysed in 20 mM Tris, 10 mM EDTA, 0.016% saponin, 1.6% Triton X-100, pH 7.5, with SYBR Green I nucleic acid gel stain (Invitrogen, Carlsbad, CA) at 5000-fold dilution.
After a […] incubation, parasite DNA contents were quantified through fluorescence measurements (excitation, 485 nm; emission, 528 nm). Results were presented as IC50 values, defined as the concentration of inhibitor which decreases P. falciparum (Pf) DNA content by 50% (IC50 PGIM).

[1] = Microsome stability (MLMS); type: in vitro ADME, mouse; details: murine liver microsomes; for MLMS % consumed: after 30 min.
Protocol: The microsome and serum stability assays measure the stability of the inhibitor compounds when exposed to the liver and to serum in vivo. For microsomal stability measurements, inhibitor compounds were incubated with mouse microsomal proteins in buffer with NADPH (Bevan, C. and R. Lloyd, Anal. Chem., 72:1781-1787 (2000)) and the resulting samples were analyzed by LC/MS to quantitate the remaining parent. The data are calculated as percent of parent remaining.

[2] = Protein binding in mouse serum by equilibrium dialysis; type: in vitro ADME
[3] = Solubility by nephelometric method; type: physicochemical
Protocol: The solubility of the inhibitor compounds was determined by the nephelometric method (Bevan, C., and R. Lloyd, supra (2000)). A high-throughput screening method for the determination of aqueous drug solubility using laser nephelometry in microtiter plates. The compounds were serially diluted in DMSO and then added to water. […] Additionally, to confirm the nephelometry results, compounds were stirred with a test vehicle (deionized water, PBS, or D5W) at 20° C. for 4 hours. Additional compound was added if complete dissolution was obtained. The mixture was then filtered and the filtrate assayed by HPLC to quantify the amount of compound in solution (Solubility).

CYP3A4 = CYP3A4 (Homo sapiens, UniProt P08684); test: Cytochrome P450 inhibition, fluorogenic substrate assay; type: in vitro ADME
Description: To measure Cytochrome P450 inhibition, a fluorogenic substrate assay was used to measure inhibitor compound interference with enzymes that metabolize drugs in vivo (Houston, J., Biochem. Pharmacol., 47:1469-1479 (1994)).

human HeLa cells = test: Mammalian cytotoxicity, HeLa cells, 72 hr, MTS; type: cell-based
Protocol: (§2) Cytotoxicity of the inhibitor compounds was quantified using human HeLa cells (CLL-2; American Type Culture Collection, Manassas, VA) seeded at 4000 cells/well in 96-well plates. Cultures were incubated with individual inhibitor compounds for 72 hr at 37° C. in minimal essential medium (Invitrogen) supplemented with 10% fetal calf serum.

[4] = Mammalian cytotoxicity, HeLa cells, 72 hr, MTS; type: cell-based, human; details: human, HeLa cells; for CC50 at 72 h: 3 days
Protocol: as §2

Serum stability (MSS) = type: in vitro ADME; details: mouse serum exposure; for MSS % consumed: after 60 minutes
Description: The microsome and serum stability assays measure the stability of the inhibitor compounds when exposed to the liver and to serum in vivo. For serum stability, inhibitor compounds were exposed to 55% mouse serum and the resulting samples analyzed by LC/MS to quantitate the remaining parent. […]

PSAC = test: Transport inhibition assay: PSAC block by osmotic lysis of infected cells in sorbitol (transmittance); type: cell-based, P. falciparum; details: for PSAC K0.5: Table 6
Protocol: Transport experiments were conducted to examine the affinity of the inhibitor compounds for PSAC. Inhibitor affinity for blocking PSAC was determined using a quantitative transmittance assay which is based on the osmotic lysis of infected cells with sorbitol (Desai, S., and A. Pillai, U.S. Pat. No. 8,618,090, supra (2013); Dondorp et al., supra (2009); Hooft van Huijsduijnen, R., and T. N. Wells, supra (2018)). Malaria parasite cultures were enriched at the trophozoite stage via the Percoll-sorbitol method (Pillai et al., Mol. Pharmacol., 82:1104-1114 (2012); Pillai et al., Mol. Pharmacol., 77:724-733 (2010); Wagner et al., Biophys. J., 84:116-123 (2003)), washed, and resuspended at 37° C. and 0.15% hematocrit in 280 mM sorbitol, 20 mM Na-HEPES, 0.1 mg/ml bovine serum albumin, pH 7.4, with the indicated concentrations of inhibitor compounds. Osmotic lysis, resulting from PSAC-mediated sorbitol uptake, was continuously tracked with transmittance measurements through the cell suspension (700-nm wavelength, DU640 spectrophotometer with Peltier temperature control; Beckman Coulter, Fullerton, CA).
Inhibitor dose-response relationships (K0.5 values) were calculated from the times required to reach a fractional lysis threshold. K0.5 estimates obtained with the osmotic lysis assay match those obtained using cell-attached and whole-cell patch-clamp assays (Alkhalil et al., Blood, 104:4279-4286 (2004); Dondorp et al., N. Engl. J. Med., 361:455-467 (2009)), confirming a quantitatively robust and valid assay.

Caco-2 cells = test: Caco-2 permeability; type: in vitro ADME; details: apical to basolateral
Protocol: as §1

CD-1 mice = test: Murine tolerability; details: not dose-related, considered formulation-related
Protocol: Tolerability. The test compounds were dissolved at concentrations of 1 to 10 mg/mL in various formulations (5% DMSO, 5% cremophor, 80% PEG-300 or 10% DMSO, 80% PEG-400, 1% Polysorbate 80). Male CD-1 mice were dosed with 4 dose levels of each test compound (vehicle control plus 3 dose levels ranging from 10-200 mg/kg as described in Table 8) of test compound by the intravenous (IV), intraperitoneal (IP) or oral (PO) route. Clinical observations described in Table 8 were made at various time points out to 24 hours after which mice were humanely euthanized.
Animals were monitored for 24 hours for signs of toxicity.

[5] = mouse, in vivo
Protocol: (§3) Tolerability. […] Pharmacokinetics (PK). […] PK parameters were calculated using the WinNonLin program. Efficacy.

[6] = test system: P. falciparum Pf3D70087/N9; test: Murine efficacy, humanized NSG mouse model infected with P. falciparum; type: in vivo
Protocol: as §3
In a second study, NSG mice were treated with either 25 mg/kg or 50 mg/kg of MBX 4055 either once or twice daily for 4 days by the oral route. […] Percent parasitemia was measured daily for 5 days as were the plasma levels of MBX 3318 and 4055.
Humanized NSG mice infected with P. falciparum were treated with 100 mg/kg of MBX 3318 twice daily for 4 days by the PO route. Control mice were treated with vehicle alone (10% DMSO, 80% PEG400, 1% Polysorbate 80). […] During the assay, blood samples were taken from mice treated with MBX 3318 to measure the levels of compound (FIG. 2B).
The murine model was also employed against MBX 4055. Humanized NSG mice infected with P. falciparum were treated with 25 or 50 mg/kg of MBX 4055 twice daily or 50 mg/kg once daily, for 4 days by the PO route. […] Unfortunately, the remaining mice that were dosed twice daily, including the vehicle-only mouse died within 2-5 days due to the apparent toxicity of the Labrasol-containing vehicle. During the assay, blood samples were taken from mice treated with MBX 4055 to measure the levels of compound (FIG. 3B).

[7] = mouse serum, equilibrium dialysis

Sequence of CYP3A4 (P08684 whole entry, species assumed): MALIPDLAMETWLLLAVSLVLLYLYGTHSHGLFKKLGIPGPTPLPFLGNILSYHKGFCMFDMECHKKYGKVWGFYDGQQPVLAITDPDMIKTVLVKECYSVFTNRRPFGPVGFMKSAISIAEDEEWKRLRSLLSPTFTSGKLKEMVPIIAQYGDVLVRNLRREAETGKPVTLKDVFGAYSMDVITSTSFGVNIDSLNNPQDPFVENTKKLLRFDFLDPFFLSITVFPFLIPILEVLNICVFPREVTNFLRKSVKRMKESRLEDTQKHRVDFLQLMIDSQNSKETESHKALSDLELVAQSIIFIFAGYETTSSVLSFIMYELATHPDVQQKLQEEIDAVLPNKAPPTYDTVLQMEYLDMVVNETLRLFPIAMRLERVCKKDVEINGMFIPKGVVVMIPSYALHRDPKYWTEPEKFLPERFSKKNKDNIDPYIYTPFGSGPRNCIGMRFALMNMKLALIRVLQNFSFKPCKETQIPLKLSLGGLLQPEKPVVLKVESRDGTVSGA

SMILES: Cc1ccc(C)c(N2CCN(S(=O)(=O)c3ccc(-c4ccc(=O)[nH]n4)s3)CC2)c1 [ISG-21, reference compound]
- Papp A→B (Caco-2 permeability): < 0.5 ×10⁻⁶ cm/s
- pIC50 (P. falciparum; Plasmodium falciparum, Pf growth inhibition in PGIM, 72 hr, read-out: IC50 PGIM): 8.70
- pIC50 (P. falciparum; Plasmodium falciparum, Table 3, read-out: IC50, Pf growth inhibition in PGIM): 8.70
- MLMS (% cons) ([1]; % consumed after 30 min., Table 4): 17 % cons
- MLMS % consumed [1]: 17 % consumed
- binding by serum proteins [2]: highly bound by serum proteins
- Mouse PB % bound [2, 7]: 100 % bound
- fraction unbound ([2]; mouse serum, equilibrium dialysis, Table 4, read-out: PPB, percent protein bound): 0.001
- solubility ([3]; water, kinetic from dmso stock, H2O, Table 4, read-out: Sol., solubility limit in H2O): 25 µM (≈ 10.8 µg/mL)
- Cyp 3A4 % inhib. at 5 μM (CYP3A4): 0 % inhib.
- inhibition at 5 µM (CYP3A4; human, Table 4, read-out: Cyp 3A4 % Inhib): 0%
- SI CC50/PSAC K0.5 (human HeLa cells; HeLa CC50 / PSAC K0.5): 28,700
- CC50 at 72 h ([4]; Table 3, read-out: CC50, cytotoxicity against HeLa cells): 86 µM
- selectivity ratio at 72 h ([4]; HeLa CC50 divided by growth inhibition IC50): 37000
- MSS (% cons) (Serum stability (MSS); % consumed after 60 minutes, Table 4): 0 % cons
- MSS % consumed (Serum stability (MSS)): 0 % consumed
- K0.5, activity in the PSAC assay (PSAC; Table 3): 0.003 µM
- PSAC K0.5 (PSAC): 0.003 µM

SMILES: N#Cc1cccnc1N1CCN(S(=O)(=O)c2ccc(-c3ccc(=O)[nH]n3)s2)CC1 [MBX-2997, 2-(4-((5-(6-oxo-1,6-dihydropyridazin-3-yl)thiophen-2-yl)sulfonyl)piperazin-1-yl)nicotinonitrile]
- pIC50 (P. falciparum; Plasmodium falciparum, 72 h, read-out: IC50 PGIM): 7.42
- solubility ([3]; water, kinetic from dmso stock, solubility limit in H2O, read-out: Solubility): 25 µM (≈ 10.7 µg/mL)
- SI CC50/PSAC K0.5 (human HeLa cells; HeLa CC50 / PSAC K0.5): >28,500
- CC50 at 72 h ([4]; Table 6, read-out: HeLa CC50): > 200 µM
- PSAC K0.5 (PSAC): 0.007 µM

SMILES: Cc1nccnc1N1CCN(S(=O)(=O)c2ccc(-c3ccc(=O)[nH]n3)s2)CC1 [MBX-4055]
- Caco-2 Papp (Caco-2 cells): 7.8 ×10⁻⁶ cm/s
- pIC50 (P. falciparum; Pf growth inhibition in PGIM, 72 hr, read-out: IC50 PGIM): 7.38
- MLMS % consumed [1]: 47 % consumed
- Mouse PB % bound [2, 7]: 94 % bound
- solubility ([3]; solubility limit in H2O, read-out: Solubility): 25 µM (≈ 10.5 µg/mL)
- Cyp 3A4 % inhib. at 5 μM (CYP3A4): 0 % inhib.
- signs of toxicity, PO dosing (CD-1 mice): some slight lethargy
- % F (oral bioavailability) [5]: 66%
- half-lives (FIG. 1, clearance rates) [5]: favorable half-lives
- AUClast ([5]; iv, 10 mg/kg): 34,275 hr*ng/mL
- Clearance ([5]; iv, 10 mg/kg): 6.53 mL/min/kg
- Half-life ([5]; iv, 10 mg/kg): 1.39 h
- Mean residence time ([5]; iv, 10 mg/kg): 1.35 h
- VD ([5]; iv, 10 mg/kg): 0.786 L/kg
- increase in normalized exposure relative to MBX 3318 ([5]; po): > 30 fold
- AUClast ([5]; po, 30 mg/kg): 67,501 hr*ng/mL
- Cmax ([5]; po, 30 mg/kg): 11,733 ng/mL
- Half-life ([5]; po, 30 mg/kg): 2.27 h
- Normalized AUC ([5]; po, 30 mg/kg): 22,500
- Tmax ([5]; po, 30 mg/kg): 1 h
- CC50 (human HeLa cells; 3 days, Table 6, read-out: HeLa CC50): > 200 µM
- SI CC50/PSAC K0.5 (human HeLa cells; HeLa CC50 / PSAC K0.5): >9,524
- MSS % consumed (Serum stability (MSS)): 5 % consumed
- reduction of parasite growth with respect to control mice ([6]; humanized NSG mouse, 50 mg/kg once daily for 4 days, PO): over 90%
- blood levels of compound compared with IC50 in vitro ([6]; infected NSG mice treated with MBX 4055 PO, FIG. 3B): well above the IC50 in vitro
- PSAC K0.5 (PSAC): 0.021 µM

SMILES: N#Cc1ccncc1N1CCN(C(=O)c2ccc(C(=O)N3CCCC3)s2)CC1 [MBX-4075]
- CC50 (human HeLa cells): > 200 µM
- SI CC50/PSAC K0.5 (human HeLa cells): >185
- PSAC K0.5 (PSAC): 1.08 µM
